# Source: publication PMC13046583, “SRS143 a semi-synthetic analogue of andrographolide against house dust mite induced allergic asthma” (Naunyn-Schmiedeberg's Archives of Pharmacology, 2025)
# Entries after “also recorded” stand apart in the source; their conditions may differ.
# Tests used:
# RBL-2H3 cells [1] = assay: Cell viability (MTT) assay; type: cell-based
# Procedure: (§1) RBL-2H3 cells were maintained in Minimum Essential Media (MEM, ThermoFischer, Grand Island, NY), supplemented with 15% heat-inactivated FBS, 100 U/mL of penicillin and 100 µg/mL of streptomycin. The cytotoxicity effect of the SRS143 was carried out using the rapid colorimetric assay that measures the activity of mitochondrial dehydrogenase in living cells, which convert the pale yellow soluble tetrazolium salt MTT into a insoluble purple end product formazan.
# (§2) The inhibitory activity of SRS143 and quercetin against the release of β-hexosaminidase from RBL-2H3 cells was evaluated according to the method reported previously (Lin et al. [2020]). Briefly, the cells were cultured in a 24-well cell culture plate (9 × 10^5/well, Becton–Dickinson Co., Franklin Lakes, NJ) with concentration ([…]) of mouse monoclonal anti-dinitrophenyl (DNP) IgE. After washing with PBS, SRS143 at various concentrations (0, 0.1, 1 and 10 μM)) or quercetin (30 μM) was added. After 60 min of incubation, DNP-labeled bovine serum albumin (DNP-labeled BSA, 50 ng/ml final concentration) was added, followed by 45 min of incubation. The supernatant (50 μl) was mixed with 100 μl of a 0.1 M citrate buffer (pH 4.5) containing 1 mM […] and the mixture was incubated in a 96-well plate at 37 °C for 60 min. For the calcium ionophore stimulation method, CaI A23187 was added at 5 µM to induce degranulation. Each well was replaced with 0.4 mL of MEM media and 100 µL of MTT solution to evaluate cell viability using MTT assay. Supernatants from CaI A23187-induced degranulated cells were collected, centrifuged, and reacted with PNAG in citrate buffer at 37℃ for 1 h. The reaction was stopped, and absorbance at 405 nm was measured using a microplate reader (Versamax).to assess beta-hexosaminidase activity, indicating enzyme subproduct levels. The results are expressed as percentage release of β-hexosaminidase activity amount by antigen (DNP-labeled BSA) alone.
# (§3) Mast cell degranulation is the key process in allergic asthma. To induce mast cell degranulation process in RBL-2H3 cells, the cells were sensitized and challenged with DNP-labelled specific antigen IgE. Alternatively, the mast cells were induced with calcium ionophore A23187 to trigger direct degranulation independent of activation of IgE. The release was assessed with β-hexosaminidase assay whereby the amount β-hexosaminidase enzyme released correlates to histamine release by RBL-2H3 cells. In the preliminary screening, single low dose of 10 µM of AGP and its derivatives were applied to the calcium ionophore activated cells for a short duration of 1 h. Quercetin as positive control was also applied at a higher dose of 50 µM. For cell viability assay, the cells were washed and replenished with fresh medium supplemented with 15% FBS after 1 h of treatment. The cell viability was measured at 24 h. […] Given close to eightfold improved potency in inhibition of mast degranulation (Fig. 4A, B and C). We further measured the efficacy of SRS143 in a dose response study involving both efficacy and toxicity.
# [2] = tested on: HDM-induced asthmatic BALB/c mice; assay: House dust mite allergic asthma mouse model, BAL fluid total and differential cell counts; type: in vivo; conditions: day 7-11, n = 6; for BAL fluid airway infiltration of all inflammatory leukocytes: 1 mg/kg i.p., positive control
# Procedure: (§4) BALB/c mice of 6–8 weeks of age were housed in the animal experimentation unit, Faculty of Medicine and Health Sciences, Universiti Putra Malaysia (UPM). Mice were kept in individually vented cages (1820 cm^3, not more than 6 mice per cage) with a bed of poplar shaving and free access to clean water and food. Mice were grouped into 8 groups of 6 mice per group – Group 1: Normal control, Group 2: HDM, Group 3: Vehicle (6% DMSO), Group 4: SRS143 (0.3 mg/kg), Group 5: SRS143 (1 mg/kg), Group 6: SRS143 (3 mg/kg), Group 7: dexamethasone (1 mg/kg), Group 8: andrographolide (1 mg/kg). Throughout the study, both experimental and control mice were kept under appropriate conditions (22 ± 2 °C temperature, and 55 ± 10% relative humidity). The mice were maintained under a 12-h light-darkness cycle.
# Allergic asthma was induced using house dust mite (Dermatophagoides pteronyssinus, Lot Number: 253983, Greer Laboratories, Lenoir, USA). The HDM was dissolved and prepared to a concentration of 5000 µg/mL in PBS, and then it was aliquoted and frozen (−20 °C) for further use. A 14-day HDM model was used to induce asthma in Balb/c mice (Lim et al. [2016]). The animals were sub-anesthetized using a cocktail of ketamine (50 mg/kg) and xylazine (3.3 mg/kg) for the intranasal HDM sensitization and challenged protocol. Briefly, the induction involved initial intranasal administration of 100 μg HDM extract (10 μL per nostril) on day 0, and subsequent administration of 10 μg of HDM (10 μL per nostril) on day 7—11. Mice were treated with SRS143 at doses of 0.3, 1, or 3 mg/kg, or with dexamethasone (1 mg/kg) or andrographolide (1 mg/kg). All treatments were administered at a constant volume of 10 mL/kg. Bronchoalveolar lavage (BAL) fluid collection was conducted on day 14.
# Fig. 3 HDM-asthma induction protocol. Animals were intranasally (i.n.) sensitized using 100 μg of house dust mite (HDM) on day 0, this was followed by daily HDM intranasal challenge (10 μg) on day 7 −11. […]
# BAL fluid total and differential cell counts were determined as described (Matsuda et al. [1994]).
# RBL-2H3 cells [3] = assay: β-hexosaminidase release assay, calcium ionophore A23187 stimulation; type: cell-based
# Procedure: as §2, §3
# [4] = Cell viability (MTT) assay; type: cell-based; conditions: rat, RBL-2H3 cells, 1 h treatment, washed, viability measured at 24 h
# Procedure: as §1, §2, §3
# [5] = tested on: HDM-induced asthmatic BALB/c mice; assay: House dust mite allergic asthma mouse model, lung histology (H&E, PAS); type: in vivo
# Procedure: as §4
# Allergic asthma was induced using house dust mite (Dermatophagoides pteronyssinus, Lot Number: 253983, Greer Laboratories, Lenoir, USA). The HDM was dissolved and prepared to a concentration of 5000 µg/mL in PBS, and then it was aliquoted and frozen (−20 °C) for further use. […]
# Isolated lungs were fixed in 10% neutral formalin and processed. […] (5 µm) were stained with H&E for inflammatory cell infiltration and Periodic Acid Schiff […] stain (PAS) for mucus production. Quantitative analysis under a light microscope was then performed. […]
# Akt phosphorylation = assay: Immunoblotting of Akt phosphorylation in IgE-FcεRI activated mast cells; type: cell-based; conditions: IgE-FcεRI activated RBL-2H3 cells, 0.1, 1 and 10 µM, n = 3
# Procedure: Nuclear proteins of RBL-2H3 cells (10 µg per lane) were separated by 10% SDS-PAGE and immunoblots were developed as described (Matsuda et al. [1994]). Immunoblots were probed with anti-AKT and anti-β-actin antibodies (all from Cell Signalling Technology, Beverly, MA).
# [6] = tested on: HDM-induced asthmatic BALB/c mice; assay: House dust mite allergic asthma mouse model, airway hyperresponsiveness to methacholine; type: in vivo; conditions: methacholine 2-32 mg/ml, n = 6
# Procedure: as §4
# Allergic asthma was induced using house dust mite (Dermatophagoides pteronyssinus, Lot Number: 253983, Greer Laboratories, Lenoir, USA). The HDM was dissolved and prepared to a concentration of 5000 µg/mL in PBS, and then it was aliquoted and frozen (−20 °C) for further use. A 14-day HDM model was used to induce asthma in Balb/c mice (Lim et al. [2016]). The animals were sub-anesthetized using a cocktail of ketamine (50 mg/kg) and xylazine (3.3 mg/kg) for the intranasal HDM sensitization and challenged protocol. […]
# RBL-2H3 cells [7] = assay: β-hexosaminidase release assay, IgE-FcεRI (DNP-IgE/DNP-BSA) stimulation; type: cell-based
# Procedure: The inhibitory activity of SRS143 and quercetin against the release of β-hexosaminidase from RBL-2H3 cells was evaluated according to the method reported previously (Lin et al. [2020]). Briefly, the cells were cultured in a 24-well cell culture plate (9 × 10^5/well, Becton–Dickinson Co., Franklin Lakes, NJ) with concentration ([…]) of mouse monoclonal anti-dinitrophenyl (DNP) IgE. After washing with PBS, SRS143 at various concentrations (0, 0.1, 1 and 10 μM)) or quercetin (30 μM) was added. After 60 min of incubation, DNP-labeled bovine serum albumin (DNP-labeled BSA, 50 ng/ml final concentration) was added, followed by 45 min of incubation. […] The reaction was stopped, and absorbance at 405 nm was measured using a microplate reader (Versamax).to assess beta-hexosaminidase activity, indicating enzyme subproduct levels. The results are expressed as percentage release of β-hexosaminidase activity amount by antigen (DNP-labeled BSA) alone.
# Mast cell degranulation is the key process in allergic asthma. […] The release was assessed with β-hexosaminidase assay whereby the amount β-hexosaminidase enzyme released correlates to histamine release by RBL-2H3 cells. […] The cell viability was measured at 24 h. […] We further measured the efficacy of SRS143 in a dose response study involving both efficacy and toxicity.
# [8] = Rattus norvegicus, 10 µM, 1 h, calcium ionophore A23187 activated RBL-2H3 cells, read-out: Inhibition of β-Hexosaminidase Enzyme Release (%)
compound,measurement,setting,value
"C=C1CCC2C(C)(CO)C(O)CCC2(C)C1C=CC1=CCOC1=O (centres unmarked) [DDAG, 14-deoxy-11,12-didehydroandrographolide]",Viability of RBL-2H3 Cells (%),"RBL-2H3 cells [1]; 10 µM, 1 h treatment, washed, viability measured at 24 h",99.6%
"C[C@@H]1C[C@H]2[C@@H]3CCC4=CC(=O)C=C[C@]4(C)[C@@]3(F)[C@@H](O)C[C@]2(C)[C@@]1(O)C(=O)CO [Dexamethasone, dexamethasone, reference compound]",BAL fluid airway infiltration of all inflammatory leukocytes,[2],showed inhibition
"C=C1CCC2C3(C)COC(c4ccccc4)OC3CCC2(C)C1C/C=C1/C(=O)OCC1OC(C)=O (centres unmarked) [SRS143, 3,19-Benzylidene-14-acetylandrographolide]","BAL fluid total cells, macrophage, neutrophil, eosinophil and lymphocyte infiltration","[2]; 0.3, 1, 3 mg/kg i.p. 2 h before HDM challenge, vs HDM group",significant reduction; also recorded: dose-dependently reduced
same,Improved potency in inhibition of mast degranulation,"RBL-2H3 cells [3]; 10 µM screening, the comparator is not given, presumably AGP",eightfold
same,inhibition at 30 µM,"RBL-2H3 cells [3]; Rattus norvegicus, RBL-2H3, 30 µM, 1 h, dose-response study (Fig. 4B), read-out: Inhibition of enzyme release",~97%
same,IC50,"RBL-2H3 cells [3]; Rattus norvegicus, RBL-2H3, calcium ionophore A23187 stimulation, 1 h (Fig. 4B), read-out: IC50, inhibition of β-hexosaminidase release",6.5 µM
same,inhibition at 10 µM,RBL-2H3 cells [3]; [8],85.2 ± 3.1%
same,Cytotoxicity on RBL-2H3 cells,"RBL-2H3 cells [1]; 1 h, 24 h, and 24 h after washing at 1 h",only toxic if applied at the highest concentration of 100 µM
same,"viability at 1 h, 10 µM",[4],107%
same,Peribronchial and perivascular inflammatory cellular infiltration in lung sections (H&E),"[5]; 0.3, 1, 3 mg/kg i.p., day 7-11",dose-dependently decreased
same,"PAS-positive cells score (mucus, goblet metaplasia)","[5]; SRS143 i.p., HDM sensitized and challenged mice",between mild to no observable goblet metaplasia
same,Levels of phosphorylated-Akt,Akt phosphorylation,decrease significantly at the highest dose of 10 μM
same,Airway resistance (RI) in response to methacholine,[6]; 1 and 3 mg/kg i.p.,remarkable decrease
same,Dynamic compliance (Cdyn) in response to methacholine,[6]; SRS143 i.p.,no significant changes
same,IC50,"RBL-2H3 cells [7]; Rattus norvegicus, RBL-2H3, IgE-FceRI stimulation, 1 h (Fig. 4C), 50% mark on concentration axis, read-out: IC50, inhibition of β-hexosaminidase release",6.5 µM
"O=c1c(O)c(-c2ccc(O)c(O)c2)oc2cc(O)cc(O)c12 [Quercetin, quercetin, reference compound]",inhibition at 50 µM,"RBL-2H3 cells [3]; Rattus norvegicus, 50 µM, 1 h, calcium ionophore A23187 activated RBL-2H3 cells, read-out: Inhibition of β-Hexosaminidase Enzyme Release (%)",78.8 ± 8.5%
same,"viability at 1 h, 50 µM",[4]; 50 µM,106%
"C=C1CC[C@@H]2[C@](C)(CO)[C@H](O)CC[C@@]2(C)[C@@H]1C/C=C1/C(=O)OC[C@H]1O [AGP, andrographolide]",BAL fluid airway infiltration of all inflammatory leukocytes,[2],showed inhibition
same,Inhibition of β-Hexosaminidase Enzyme Release (%),"RBL-2H3 cells [3]; 10 µM, 1 h, calcium ionophore A23187 activated RBL-2H3 cells",low percentage inhibition level
same,inhibition at 10 µM,RBL-2H3 cells [3]; [8],11.1 ± 5.7%
same,In vitro antihistamine activity,RBL-2H3 cells [3]; calcium ionophore activated RBL-2h3 cells,did not show any in vitro antihistamine activity
same,"viability at 1 h, 10 µM",[4],81.3%
same,In vitro antihistamine activity,RBL-2H3 cells [7]; DNP-IgE activated RBL-2h3 cells,did not show any in vitro antihistamine activity
